Assay results as given in the supplement of paper PMC11451515.

Tested on: NOMO1
Assay: cell viability relative to DMSO control; higher = less cytotoxic
Settings: 48 h
How it was run: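 Viability is expressed as a percentage of DMSO wells within each plate, and cell-free wells serve as background. Seeding densities in the 1536-well plates (5 μl) were 500 cells/well for NOMO1 or SEM leukemia cells and 1000 cells/well for P12-Ichikawa. Each line was adapted for at least four passages in each medium. Library compounds in DMSO were pin-dosed at 47 μM to 0.79 nM (11 points, threefold), and CellTiter-Glo One luminescence was read after 48 h at 37°C.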

[1] = HPLM + 10% dialyzed FBS, 0.000781 µM
[2] = HPLM + 10% dialyzed FBS, 0.00234 µM
[3] = HPLM + 10% dialyzed FBS, 0.00702 µM
[4] = HPLM + 10% dialyzed FBS, 0.0211 µM
[5] = HPLM + 10% dialyzed FBS, 0.0632 µM
[6] = HPLM + 10% dialyzed FBS, 0.19 µM
[7] = HPLM + 10% dialyzed FBS, 0.569 µM
[8] = HPLM + 10% dialyzed FBS, 1.71 µM
[9] = HPLM + 10% dialyzed FBS, 5.12 µM
[10] = HPLM + 10% dialyzed FBS, 15.4 µM
[11] = HPLM + 10% dialyzed FBS, 46.1 µM
[12] = RPMI 5 mM glucose + 10% FBS, 0.000781 µM
[13] = RPMI 5 mM glucose + 10% FBS, 0.00234 µM
[14] = RPMI 5 mM glucose + 10% FBS, 0.00702 µM
[15] = RPMI 5 mM glucose + 10% FBS, 0.0211 µM
[16] = RPMI 5 mM glucose + 10% FBS, 0.0632 µM
[17] = RPMI 5 mM glucose + 10% FBS, 0.19 µM
[18] = RPMI 5 mM glucose + 10% FBS, 0.569 µM
[19] = RPMI 5 mM glucose + 10% FBS, 1.71 µM
[20] = RPMI 5 mM glucose + 10% FBS, 5.12 µM
[21] = RPMI 5 mM glucose + 10% FBS, 15.4 µM
[22] = RPMI 5 mM glucose + 10% FBS, 46.1 µM
[23] = RPMI 5 mM glucose + 10% dialyzed FBS, 0.000781 µM
[24] = RPMI 5 mM glucose + 10% dialyzed FBS, 0.00234 µM
[25] = RPMI 5 mM glucose + 10% dialyzed FBS, 0.00702 µM
[26] = RPMI 5 mM glucose + 10% dialyzed FBS, 0.0211 µM
[27] = RPMI 5 mM glucose + 10% dialyzed FBS, 0.0632 µM
[28] = RPMI 5 mM glucose + 10% dialyzed FBS, 0.19 µM
[29] = RPMI 5 mM glucose + 10% dialyzed FBS, 0.569 µM
[30] = RPMI 5 mM glucose + 10% dialyzed FBS, 1.71 µM
[31] = RPMI 5 mM glucose + 10% dialyzed FBS, 5.12 µM
[32] = RPMI 5 mM glucose + 10% dialyzed FBS, 15.4 µM
[33] = RPMI 5 mM glucose + 10% dialyzed FBS, 46.1 µM

| SMILES | cell viability [1] | cell viability [2] | cell viability [3] | cell viability [4] | cell viability [5] | cell viability [6] | cell viability [7] | cell viability [8] | cell viability [9] | cell viability [10] | cell viability [11] | cell viability [12] | cell viability [13] | cell viability [14] | cell viability [15] | cell viability [16] | cell viability [17] | cell viability [18] | cell viability [19] | cell viability [20] | cell viability [21] | cell viability [22] | cell viability [23] | cell viability [24] | cell viability [25] | cell viability [26] | cell viability [27] | cell viability [28] | cell viability [29] | cell viability [30] | cell viability [31] | cell viability [32] | cell viability [33] |
| --- | --- | --- | --- | --- | --- | --- | --- | --- | --- | --- | --- | --- | --- | --- | --- | --- | --- | --- | --- | --- | --- | --- | --- | --- | --- | --- | --- | --- | --- | --- | --- | --- | --- |
| CCOC(=O)\C1=C\[C@]2(CC)CCCN3CCC4=C([C@H]23)[N]1C5=C4C=CC=C5 | 104% | 118% | 122% | 124% | 125% | 126% | 131% | 123% | 124% | 126% | 54.5% | 95.3% | 103% | 113% | 113% | 123% | 120% | 135% | 113% | 102% | 111% | 57.7% | 91.8% | 105% | 118% | 122% | 108% | 113% | 119% | 110% | 108% | 105% | 70.5% |
| CN1CC(=O)N2[C@H](c3ccc4c(c3)OCO4)c3[nH]c4ccccc4c3C[C@@H]2C1=O | 111% | 99.6% | 109% | 107% | 103% | 94.8% | 98.7% | 83.3% | 91.5% | 90.7% | 74.8% | 97.2% | 96.1% | 89.1% | 88.4% | 101% | 101% | 97% | 83.9% | 92.8% | 97.8% | 77% | 107% | 93.5% | 97.6% | 98.3% | 88.4% | 103% | 98.9% | 89% | 81.3% | 109% | 79.1% |
